Laboratory results: US20220195027A1, “ANTI-ANGIOGENESIS THERAPY FOR THE TREATMENT OF PREVIOUSLY TREATED BREAST CANCER” (Genentech, Inc., priority 2009, published 2022)
Read-outs that look alike come from different tables or passages of the source.

Columns and labels:
metastatic breast cancer [1] = settings: MBC patients with prior anthracycline therapy; cited from earlier work
metastatic breast cancer [2] = settings: patients who previously received or were not candidates for anthracyclines; cited from earlier work
[3] = system: previously treated metastatic HER2-negative breast cancer; assay: RIBBON 2 Phase III study, efficacy (PFS, OS) of bevacizumab or placebo plus chemotherapy; format: in vivo, human; settings: for Progression free survival, result in words: in combination with chemotherapy, compared to chemotherapy alone
Protocol: The doctors treating the women in the study chose the type of chemotherapy used in combination with Avastin and the chemotherapies were assessed together in the primary endpoint analysis. […] Ribbon 2 was an international, multicenter, randomized, double-blind, placebo-controlled clinical study that enrolled 684 patients with metastatic HER2-negative breast cancer who had previously received chemotherapy for their metastatic disease. See Study Conduct in Table 1 and Patient Characteristics in Table 2. The trial evaluated the addition of either Avastin® (bevacizumab) or placebo to an investigator's choice of chemotherapy. The following chemotherapy regimens were used in the study: taxanes: paclitaxel, protein-bound paclitaxel or docetaxel; gemcitabine; capecitabine; or vinorelbine. Bevacizumab (5 mg/kg Weekly Equivalent) 15 mg/kg IV q 3 weeks; or […] Plus Chemotherapy Taxane • Paclitaxel (e.g., Taxol®): 90 mg/m^2 IV every week for 3 weeks followed by 1 week of rest; or • Paclitaxel (e.g., Taxol®): 175 mg/m^2 IV every 3 weeks; or • Paclitaxel protein-bound particles (Abraxane®): 260 mg/m^2 IV every 3 weeks; or • Docetaxel (Taxotere®): 75-100 mg/m^2 IV every 3 weeks; or Gemcitabine (Gemzar®): 1250 mg/m^2 IV on Days 1 and 8 of each 3-week cycle; or Vinorelbine (Navelbine®): 30 mg/m^2 IV every week; or […] In the study, PFS was defined as the time from randomization to disease progression or death as assessed by the treating physicians in the study (investigator-assessed). Secondary endpoints included objective response rate, duration of response, one-year survival rate, overall survival, PFS assessment by chemotherapy type and safety. […] See Table 3 Primary Efficacy Analysis of PFS and FIG. 2 (Primary Endpoint of PFS) and FIG. 3 (Cohort-Specific Analyses of PFS). PFS results were generally consistent across chemotherapy cohorts with the exception of the small vinorelbine sub-group. Other sub-groups (age, triple negative, etc.) were generally consistent with the primary PFS results. The observed improvement in overall PFS was supported by the secondary efficacy endpoint of ORR. See Table 4 for Interim Efficacy Analysis of OS. […] See, e.g., Table 5, Safety Summary, Safety Population, Table 6 Selected AEs, Safety Population and Table 7 Safety Summary by Chemotherapy Cohort, Safety Population. Bevacizumab was beneficial to patients as a second-line treatment.

[4] = RIBBON 2 Phase III study, safety (adverse events), safety population; format: in vivo; settings: in combination with chemotherapy
From the text: Ribbon 2 was an international, multicenter, randomized, double-blind, placebo-controlled clinical study that enrolled 684 patients with metastatic HER2-negative breast cancer who had previously received chemotherapy for their metastatic disease. […] The trial evaluated the addition of either Avastin® (bevacizumab) or placebo to an investigator's choice of chemotherapy. The following chemotherapy regimens were used in the study: taxanes: paclitaxel, protein-bound paclitaxel or docetaxel; gemcitabine; capecitabine; or vinorelbine.

Row | Compound | survival (metastatic breast cancer [1]) [months] | time to disease progression (metastatic breast cancer [1]) [months] | survival (metastatic breast cancer [2]) [months] | time to progression (metastatic breast cancer [2]) [months] | PFS stratified analysis HR (95% CI) ([3]; Chemo/BV vs Chemo/PL, ITT population) | PFS median ([3]; ITT population, investigator-assessed) [months] | Progression free survival, result in words [3] | Progression free survival, result in words ([3]; listed as Avastin) | Safety signals, result in words [4] | Safety signals, result in words ([4]; listed as Avastin)
1 | CC(=O)O[C@@]12CO[C@@H]1C[C@H](O)[C@@]1(C)C(=O)[C@H](O)C3=C(C)[C@@H](OC(=O)[C@H](O)[C@@H](NC(=O)OC(C)(C)C)c4ccccc4)C[C@@](O)([C@@H](OC(=O)c4ccccc4)[C@H]21)C3(C)C [docetaxel] | 11.4 | 4.4 | 11.5 | 4.2 |  |  |  |  |  | 
2 | bevacizumab: recombinant humanized anti-VEGF monoclonal antibody with human IgG1 framework and CDRs from murine antibody A.4.6.1 |  |  |  |  | 0.775 | 7.2 | increase in progression free survival | increased the time | No new bevacizumab safety signals were observed | no new Avastin safety signals were observed
